Test results: ChEMBL document CHEMBL1150141, “Cytotoxic diarylheptanoids from the roots of Juglans mandshurica” (J Nat Prod, 2002)
Converted amounts (≈) assume the structure as drawn.

How the values were obtained:
[1] = test system: HT-29; assay: Cytotoxicity against human HT-29 cells by MTT assay; type: functional, cell-based
[2] = test system: A549; assay: Cytotoxicity against human A549 cells by MTT assay; type: functional, cell-based

Question: `CC(C)(O)[C@@H]1CC[C@@]2(C)CCC[C@@](C)(O)[C@@H]2C1` was tested. Which IC50 [1] did it give?
Answer: 12.9 µg/mL (≈ 53.7 µM)

Question: And the IC50 [2]?
Answer: 9.9 µg/mL (≈ 41.2 µM)

Question: Which results are given for `COC(=O)C(O)(c1cc2c(c3oc([C@]4(C)C[C@@H]4C)cc(=O)c13)C(=O)c1c(ccc([C@H]3C[C@](C)(N(C)C)[C@H](O[C@@H]4C[C@H](OC)[C@H](O)[C@@H](C)O4)[C@H](C)O3)c1O)C2=O)[C@H]1O[C@H](C)[C@@H](O)[C@@H](OC)[C@@H]1O` (some centres not stated) [ALTROMYCIN B]?
Answer: IC50 [1]: 3.9 µg/mL (≈ 4.22 µM); IC50 [2]: 4.2 µg/mL (≈ 4.55 µM)

Question: What does the source list for `COc1ccc2cc1Oc1ccc(c(O)c1OC)CCCCC(O)CC2` (configuration not stated)?
Answer: IC50 [1]: 23.9 µg/mL (≈ 66.7 µM); IC50 [2]: 11.5 µg/mL (≈ 32.1 µM)

Question: Which results are given for `COc1cc2ccc1Oc1cc(ccc1O)CCC(=O)CCCC2`?
Answer: IC50 [1]: 5.3 µg/mL (≈ 16.2 µM); IC50 [2]: 2.2 µg/mL (≈ 6.74 µM)

Question: With `COc1cc(C2CC(O)CC(C(O)Cc3ccc(O)cc3)O2)ccc1O` (configuration not stated) as the compound, how does the IC50 [1] read?
Answer: > 50 µg/mL

Question: And the IC50 [2]?
Answer: > 50 µg/mL

Question: Which IC50 [1] does the source give for `COc1cc(CC/C=C/C(=O)CCc2ccc(O)cc2)ccc1O` here?
Answer: 8.2 µg/mL (≈ 25.1 µM)

Question: And the IC50 [2]?
Answer: 5.4 µg/mL (≈ 16.5 µM)
